Where a name gives a salt, the structure may show the parent alone.
Columns and labels:
Conditions in all cases: 72 h
U2OS [1] = assay: drug sensitivity score (DSS) for viability; higher = more toxic; extreme values may be limits of the assay
Calu-3 [2] = assay: as above
Vero E6 [3] = assay: as above
Caco-2 [4] = assay: as above
U2OS [5] = assay: relative viability EC50 (midpoint between 100% and the lowest measured viability); higher = less toxic
Calu-3 [6] = assay: as above
Vero E6 [7] = assay: as above
Caco-2 [8] = assay: as above
U2OS [9] = assay: cell viability relative to DMSO; higher = less toxic
Calu-3 [10] = assay: as above
Vero E6 [11] = assay: as above
Caco-2 [12] = assay: as above
HepG2 [13] = assay: drug sensitivity score (DSS) for viability; higher = more toxic; extreme values may be limits of the assay
HepG2 [14] = assay: cell viability relative to DMSO; higher = less toxic

Row | Structure (SMILES) | drug sensitivity score (U2OS [1]) | drug sensitivity score (Calu-3 [2]) | drug sensitivity score (Vero E6 [3]) | drug sensitivity score (Caco-2 [4]) | relative viability EC50 (U2OS [5]) [µM] | relative viability EC50 (Calu-3 [6]) [µM] | relative viability EC50 (Vero E6 [7]) [µM] | relative viability EC50 (Caco-2 [8]) [µM] | cell viability (U2OS [9]; 1 nM) [%] | cell viability (U2OS [9]; 10 nM) [%] | cell viability (U2OS [9]; 100 nM) [%] | cell viability (U2OS [9]; 1000 nM) [%] | cell viability (U2OS [9]; 10000 nM) [%] | cell viability (Calu-3 [10]; 1 nM) [%] | cell viability (Calu-3 [10]; 10 nM) [%] | cell viability (Calu-3 [10]; 100 nM) [%] | cell viability (Calu-3 [10]; 1000 nM) [%] | cell viability (Calu-3 [10]; 10000 nM) [%] | cell viability (Vero E6 [11]; 1 nM) [%] | cell viability (Vero E6 [11]; 10 nM) [%] | cell viability (Vero E6 [11]; 100 nM) [%] | cell viability (Vero E6 [11]; 1000 nM) [%] | cell viability (Vero E6 [11]; 10000 nM) [%] | cell viability (Caco-2 [12]; 1 nM) [%] | cell viability (Caco-2 [12]; 10 nM) [%] | cell viability (Caco-2 [12]; 100 nM) [%] | cell viability (Caco-2 [12]; 1000 nM) [%] | cell viability (Caco-2 [12]; 10000 nM) [%] | drug sensitivity score (HepG2 [13]) | cell viability (HepG2 [14]; 1 nM) [%] | cell viability (HepG2 [14]; 10 nM) [%] | cell viability (HepG2 [14]; 100 nM) [%] | cell viability (HepG2 [14]; 1000 nM) [%] | cell viability (HepG2 [14]; 10000 nM) [%]
1 | O=C(O)c1nn(Cc2ccc(Cl)cc2Cl)c2ccccc12 [lonidamine] | 0 | 0 | 0 | 0 | > 10 | > 10 | > 10 | > 10 | 100 | 110 | 98 | 111 | 98 | 98.5 | 96.2 | 89.8 | 101 | 116 | 98.8 | 102 | 102 | 95.8 | 95.8 | 95.3 | 107 | 94.1 | 105 | 96.4 | – | – | – | – | – | –
2 | CCCCCCOc1cc2c(cc1N(C)c1ncc(C(=O)O)cn1)C(C)(C)CCC2(C)C [PA-452] | 0 | – | – | – | > 10 | – | – | – | 97.7 | 92.8 | 97 | 101 | 103 | – | – | – | – | – | – | – | – | – | – | – | – | – | – | – | – | – | – | – | – | –
3 | OCCCCO [1,4-butanediol] | 0 | 0 | 0 | 0 | > 10 | > 10 | > 10 | > 10 | 101 | 108 | 96.8 | 111 | 97.8 | 89.2 | 98.4 | 89.4 | 94 | 93.7 | 102 | 102 | 100 | 104 | 93.1 | 98.6 | 112 | 119 | 107 | 102 | 0.7 | 90.8 | 97.9 | 95.7 | 105 | 74.4
4 | Cc1cc(NS(=O)(=O)c2ccc(N)cc2)no1 [sulfamethoxazole] | 0 | 0 | – | – | – | – | – | – | – | – | – | – | – | – | – | – | – | – | – | – | – | – | – | – | – | – | – | – | 0 | – | – | – | – | –
5 | C[C@@H]1CCO[C@H]2Cn3cc(C(=O)NCc4ccc(F)cc4F)c(=O)c(O)c3C(=O)N12 [dolutegravir] | 0 | 0 | 0.4 | 0.1 | > 10 | > 10 | > 10 | > 10 | 104 | 103 | 104 | 95.6 | 98.5 | 117 | 113 | 101 | 91.1 | 105 | 97.3 | 99.7 | 97 | 100 | 81.9 | 102 | 94.4 | 97.6 | 97.7 | 88.2 | 2.1 | 101 | 114 | 107 | 100 | 57.6
6 | COc1ccc(C(C)=O)c(O)c1 [paeonol] | 0 | 0 | 0 | 0 | > 10 | > 10 | > 10 | > 10 | 95 | 96.8 | 95.8 | 95.8 | 97.7 | 95.6 | 95.9 | 91.2 | 99.8 | 105 | 95.4 | 98.7 | 96.9 | 94.1 | 106 | 96.6 | 96 | 103 | 96.5 | 110 | – | – | – | – | – | –
7 | OC[C@H]1O[C@@H](O[C@@H]2[C@@H](CO)OC(O)(CO)[C@H]2O)[C@H](O)[C@@H](O)[C@H]1O (mixture of isomers) [lactulose] | – | 0 | 0 | 0 | – | > 10 | > 10 | > 10 | – | – | – | – | – | 107 | 112 | 99.1 | 104 | 101 | 94.1 | 97.7 | 89.1 | 94.6 | 110 | 100 | 98.2 | 101 | 104 | 106 | – | – | – | – | – | –
8 | C[C@H]1[C@H](C)CC[C@]2(C(=O)O)CC[C@]3(C)C(=CC[C@@H]4[C@@]5(C)C[C@@H](O)[C@H](O)C(C)(C)[C@@H]5CC[C@]43C)[C@H]12 [corosolic-acid] | – | 0 | 0 | 0 | – | > 10 | > 10 | > 10 | – | – | – | – | – | 96.8 | 106 | 103 | 95.3 | 99.8 | 101 | 104 | 99.7 | 104 | 103 | 107 | 110 | 102 | 108 | 99.6 | – | – | – | – | – | –
9 | COc1cc(/C=C/C(=O)O)ccc1O [ferulic-acid] | 0 | 0 | 0 | 0 | > 10 | > 10 | > 10 | > 10 | 97.8 | 102 | 99.9 | 99.3 | 101 | 93.8 | 98.6 | 103 | 95.6 | 94.2 | 94 | 107 | 94.5 | 96.2 | 107 | 99 | 97.8 | 96.4 | 92.2 | 103 | – | – | – | – | – | –
10 | C[C@H](c1ccc2ccc(OC3CCC(C(F)(F)F)CC3)c(C(F)(F)F)c2c1)N1C2CCC1CC(C(=O)O)C2 (stereo not given in full) [autotaxin-modulator-1] | 0.1 | 0 | 0 | 0.7 | > 10 | > 10 | > 10 | > 10 | 93.3 | 95.9 | 94.3 | 95.1 | 83.7 | 114 | 97.6 | 100 | 106 | 96.2 | 99.2 | 103 | 96.4 | 93.8 | 89 | 105 | 91.2 | 96.1 | 96.6 | 83.2 | 1.8 | 90.4 | 91 | 105 | 96 | 71.9
11 | Cc1cc(C)c(/C=C2\C(=O)Nc3ccccc32)[nH]1 [semaxanib] | 0 | 0 | 0 | 0 | > 10 | > 10 | > 10 | > 10 | 99.7 | 96.6 | 100 | 99.4 | 97.4 | 93.2 | 87.4 | 93.6 | 94.9 | 102 | 103 | 102 | 98.7 | 105 | 106 | 103 | 90.6 | 100 | 90.4 | 91.3 | 2.4 | 99 | 96.2 | 91 | 92 | 67.1
12 | O=C(/C=C/c1ccc(O)c(O)c1)O[C@@H]1C[C@](O)(C(=O)O)C[C@@H](O)[C@H]1O [chlorogenic-acid] | 0 | 0 | 0 | – | – | – | – | – | – | – | – | – | – | – | – | – | – | – | – | – | – | – | – | – | – | – | – | – | 0 | – | – | – | – | –
13 | CCOc1ccc(Cc2nccc3cc(OCC)c(OCC)cc23)cc1OCC [ethaverine] | 0.3 | 1.1 | 0 | 3.6 | > 10 | – | > 10 | > 10 | 93.3 | 106 | 95.4 | 96.6 | 86.1 | 98.8 | 100 | 101 | 105 | 69.3 | 116 | 90.6 | 103 | 95.2 | 90.9 | 89.5 | 87.4 | 90.3 | 82.9 | 77.3 | 5.1 | 86.2 | 91.2 | 105 | 76.5 | 57.3
14 | CN1[C@@H]2C[C@@H](OC(=O)[C@H](CO)c3ccccc3)C[C@H]1[C@@H]1O[C@@H]12 [SCOPOLAMINE HYDROBROMIDE] | 0 | 0 | 0 | – | > 10 | > 10 | > 10 | – | 98 | 98.7 | 99.3 | 95.9 | 96.4 | 96.6 | 99.1 | 91.6 | 101 | 105 | 94.2 | 99 | 94.4 | 97.2 | 115 | – | – | – | – | – | – | – | – | – | – | –
15 | N#Cc1c(O)c2c(-c3ccc(-c4ccccc4O)cc3)csc2[nH]c1=O | 0 | 0 | 0 | 0 | > 10 | > 10 | > 10 | > 10 | 103 | 108 | 99.8 | 106 | 99.1 | 94.3 | 94.8 | 96.7 | 95.5 | 104 | 105 | 101 | 97.3 | 95.4 | 99 | 97.8 | 102 | 95.2 | 98.8 | 96.5 | – | – | – | – | – | –
16 | CCC(C)(C)c1ccc(CC(C)CN2C[C@@H](C)O[C@@H](C)C2)cc1 (stereo not given in full) [amorolfine] | – | 0 | – | 2.5 | – | > 10 | – | > 10 | – | – | – | – | – | 93.8 | 109 | 92.9 | 100 | 94.7 | – | – | – | – | – | 86 | 114 | 91.8 | 84.8 | 76 | – | – | – | – | – | –
17 | O=C1NC(=O)c2c1c1c3ccccc3n3c1c1c2c2ccccc2n1C1CCC3O1 | 1.9 | 0 | 5.5 | 4 | > 10 | > 10 | – | > 10 | 99.8 | 99.3 | 91.1 | 86.8 | 80 | 104 | 92.6 | 96.4 | 92 | 95.9 | 98.5 | 94.7 | 95 | 71.7 | 75 | 101 | 96.2 | 92.9 | 76.9 | 80.7 | 7.8 | 100 | 99.9 | 98.8 | 57.8 | 56.5

From the supplement of paper PMC13380429
